The source made the active and inactive calls. Cut-off read from the data, not from the text of the source, for most assays here: actives have a measured Kd and inactives only a lower limit.
Assays:
[1] = target: Mitogen-activated protein kinase 1 (Homo sapiens, UniProt P28482)
[2] = target: GTP-binding nuclear protein Ran (Homo sapiens, UniProt P62826)
[3] = target: Mitogen-activated protein kinase 10 (Homo sapiens, UniProt P53779)
[4] = target: T1, Serine/threonine-protein kinase 4 (Homo sapiens, UniProt Q13043)
T1 sequence (Q13043 whole entry): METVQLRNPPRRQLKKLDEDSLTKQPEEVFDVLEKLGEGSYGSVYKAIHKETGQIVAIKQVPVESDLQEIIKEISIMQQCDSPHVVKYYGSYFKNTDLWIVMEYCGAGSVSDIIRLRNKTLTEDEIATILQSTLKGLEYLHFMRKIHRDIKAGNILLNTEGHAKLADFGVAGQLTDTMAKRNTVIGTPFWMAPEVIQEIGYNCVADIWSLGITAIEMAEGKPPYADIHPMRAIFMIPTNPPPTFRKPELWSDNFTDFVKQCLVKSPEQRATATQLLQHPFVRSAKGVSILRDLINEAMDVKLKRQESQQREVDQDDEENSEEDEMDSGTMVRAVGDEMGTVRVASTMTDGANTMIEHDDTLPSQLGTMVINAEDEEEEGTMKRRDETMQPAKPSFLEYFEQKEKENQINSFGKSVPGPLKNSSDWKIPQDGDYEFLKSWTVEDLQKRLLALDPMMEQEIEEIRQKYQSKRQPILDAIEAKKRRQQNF

[5] = target: Cyclin-dependent kinase 13 (Homo sapiens, UniProt Q14004)
Sequence of Cyclin-dependent kinase 13 (Q14004 whole entry): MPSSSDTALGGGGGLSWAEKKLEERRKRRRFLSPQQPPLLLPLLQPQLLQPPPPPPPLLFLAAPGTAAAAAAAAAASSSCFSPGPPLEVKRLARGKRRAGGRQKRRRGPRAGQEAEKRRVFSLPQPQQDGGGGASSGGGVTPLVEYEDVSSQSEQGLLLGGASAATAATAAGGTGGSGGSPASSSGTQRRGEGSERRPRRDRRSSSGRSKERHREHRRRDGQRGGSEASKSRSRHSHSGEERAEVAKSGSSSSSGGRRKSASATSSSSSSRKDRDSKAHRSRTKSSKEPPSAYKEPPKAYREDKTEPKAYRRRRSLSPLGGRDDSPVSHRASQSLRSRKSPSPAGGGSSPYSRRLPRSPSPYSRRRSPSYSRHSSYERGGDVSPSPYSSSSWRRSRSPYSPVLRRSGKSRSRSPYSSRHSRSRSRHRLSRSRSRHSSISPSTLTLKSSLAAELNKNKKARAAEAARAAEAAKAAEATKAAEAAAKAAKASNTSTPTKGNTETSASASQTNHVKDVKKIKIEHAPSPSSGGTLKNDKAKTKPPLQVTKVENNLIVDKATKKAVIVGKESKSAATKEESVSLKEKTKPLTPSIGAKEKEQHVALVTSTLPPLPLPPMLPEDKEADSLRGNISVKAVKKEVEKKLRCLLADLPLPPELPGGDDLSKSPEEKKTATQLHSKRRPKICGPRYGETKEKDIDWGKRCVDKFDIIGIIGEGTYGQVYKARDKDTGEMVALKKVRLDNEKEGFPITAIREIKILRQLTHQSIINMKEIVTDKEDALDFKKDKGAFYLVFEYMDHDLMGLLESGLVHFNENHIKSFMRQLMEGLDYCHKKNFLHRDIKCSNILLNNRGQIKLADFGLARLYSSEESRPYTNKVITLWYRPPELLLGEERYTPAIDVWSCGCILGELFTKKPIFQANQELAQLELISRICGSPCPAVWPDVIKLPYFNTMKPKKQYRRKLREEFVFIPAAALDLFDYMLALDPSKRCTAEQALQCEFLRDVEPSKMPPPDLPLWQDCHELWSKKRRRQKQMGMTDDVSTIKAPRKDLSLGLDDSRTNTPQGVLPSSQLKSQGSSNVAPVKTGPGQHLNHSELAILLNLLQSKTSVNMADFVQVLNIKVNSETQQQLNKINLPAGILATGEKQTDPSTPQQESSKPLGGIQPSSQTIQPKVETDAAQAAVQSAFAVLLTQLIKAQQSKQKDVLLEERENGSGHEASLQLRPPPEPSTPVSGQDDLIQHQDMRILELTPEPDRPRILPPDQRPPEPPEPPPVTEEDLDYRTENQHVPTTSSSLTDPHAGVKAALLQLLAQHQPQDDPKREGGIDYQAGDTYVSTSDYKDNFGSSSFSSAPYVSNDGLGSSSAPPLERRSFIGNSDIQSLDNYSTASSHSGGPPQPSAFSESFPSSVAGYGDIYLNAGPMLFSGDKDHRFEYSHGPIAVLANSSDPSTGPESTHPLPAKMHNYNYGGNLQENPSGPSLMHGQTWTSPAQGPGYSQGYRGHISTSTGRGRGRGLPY

[6] = target: TRAF2 and NCK-interacting protein kinase (Homo sapiens, UniProt Q9UKE5)
Sequence of TRAF2 and NCK-interacting protein kinase (Q9UKE5 whole entry): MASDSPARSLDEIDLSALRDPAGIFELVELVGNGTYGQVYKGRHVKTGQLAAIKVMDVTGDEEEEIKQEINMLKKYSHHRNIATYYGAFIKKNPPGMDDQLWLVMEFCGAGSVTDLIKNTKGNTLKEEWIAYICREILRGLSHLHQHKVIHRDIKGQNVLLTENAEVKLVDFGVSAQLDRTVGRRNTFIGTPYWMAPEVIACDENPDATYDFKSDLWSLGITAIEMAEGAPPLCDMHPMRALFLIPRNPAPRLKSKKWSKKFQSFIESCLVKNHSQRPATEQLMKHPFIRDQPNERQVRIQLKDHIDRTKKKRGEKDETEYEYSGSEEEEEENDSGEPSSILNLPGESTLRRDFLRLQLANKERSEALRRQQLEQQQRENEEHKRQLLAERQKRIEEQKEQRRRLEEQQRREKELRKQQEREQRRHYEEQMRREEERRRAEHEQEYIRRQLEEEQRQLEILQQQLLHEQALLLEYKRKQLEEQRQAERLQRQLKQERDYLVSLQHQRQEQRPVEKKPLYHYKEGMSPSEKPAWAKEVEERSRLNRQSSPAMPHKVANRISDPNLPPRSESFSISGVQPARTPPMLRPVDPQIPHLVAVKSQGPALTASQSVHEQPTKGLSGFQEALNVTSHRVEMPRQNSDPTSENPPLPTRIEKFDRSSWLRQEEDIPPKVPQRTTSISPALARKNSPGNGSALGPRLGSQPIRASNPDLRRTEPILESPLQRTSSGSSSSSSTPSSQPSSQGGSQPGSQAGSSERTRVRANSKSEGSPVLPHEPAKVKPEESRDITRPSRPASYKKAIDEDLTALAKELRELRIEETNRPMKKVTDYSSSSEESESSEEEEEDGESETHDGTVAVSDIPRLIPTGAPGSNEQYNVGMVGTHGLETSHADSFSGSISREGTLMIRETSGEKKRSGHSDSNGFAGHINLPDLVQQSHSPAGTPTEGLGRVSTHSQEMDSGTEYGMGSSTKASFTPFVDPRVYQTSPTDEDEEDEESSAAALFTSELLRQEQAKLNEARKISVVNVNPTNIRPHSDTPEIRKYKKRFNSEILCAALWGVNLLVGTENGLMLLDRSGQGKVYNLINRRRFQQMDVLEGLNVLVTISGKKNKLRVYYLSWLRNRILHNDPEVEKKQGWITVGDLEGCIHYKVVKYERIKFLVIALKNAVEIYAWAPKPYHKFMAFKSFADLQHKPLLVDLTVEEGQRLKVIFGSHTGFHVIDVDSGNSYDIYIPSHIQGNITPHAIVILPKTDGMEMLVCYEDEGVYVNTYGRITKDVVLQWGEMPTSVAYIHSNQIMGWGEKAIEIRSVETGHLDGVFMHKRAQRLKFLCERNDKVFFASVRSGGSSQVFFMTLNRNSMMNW

[7] = target: Cyclin-dependent kinase 12 (Homo sapiens, UniProt Q9NYV4)
[8] = target: Ephrin type-A receptor 5 (Homo sapiens, UniProt P54756)
[9] = target: GTP-binding protein 4 (Homo sapiens, UniProt Q9BZE4)
[10] = target: RAC-alpha serine/threonine-protein kinase (Homo sapiens, UniProt P31749)
[11] = target: T2, MAP kinase-activated protein kinase 5 (Homo sapiens, UniProt Q8IW41)
T2 sequence (Q8IW41 whole entry): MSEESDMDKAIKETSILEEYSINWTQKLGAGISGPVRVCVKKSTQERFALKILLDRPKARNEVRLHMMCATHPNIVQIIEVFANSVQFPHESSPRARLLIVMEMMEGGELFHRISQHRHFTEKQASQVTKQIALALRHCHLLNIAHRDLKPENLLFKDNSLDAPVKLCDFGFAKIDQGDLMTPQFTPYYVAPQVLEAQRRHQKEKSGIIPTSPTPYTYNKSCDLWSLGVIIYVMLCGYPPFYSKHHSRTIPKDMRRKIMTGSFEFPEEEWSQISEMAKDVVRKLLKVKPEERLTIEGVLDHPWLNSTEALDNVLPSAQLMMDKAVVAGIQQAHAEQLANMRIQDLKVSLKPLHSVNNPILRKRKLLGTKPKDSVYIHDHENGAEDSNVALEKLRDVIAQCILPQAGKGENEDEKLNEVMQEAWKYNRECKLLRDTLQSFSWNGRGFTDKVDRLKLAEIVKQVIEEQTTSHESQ

[12] = target: TGF-beta receptor type-2 (Homo sapiens, UniProt P37173)
Sequence of TGF-beta receptor type-2 (P37173 whole entry): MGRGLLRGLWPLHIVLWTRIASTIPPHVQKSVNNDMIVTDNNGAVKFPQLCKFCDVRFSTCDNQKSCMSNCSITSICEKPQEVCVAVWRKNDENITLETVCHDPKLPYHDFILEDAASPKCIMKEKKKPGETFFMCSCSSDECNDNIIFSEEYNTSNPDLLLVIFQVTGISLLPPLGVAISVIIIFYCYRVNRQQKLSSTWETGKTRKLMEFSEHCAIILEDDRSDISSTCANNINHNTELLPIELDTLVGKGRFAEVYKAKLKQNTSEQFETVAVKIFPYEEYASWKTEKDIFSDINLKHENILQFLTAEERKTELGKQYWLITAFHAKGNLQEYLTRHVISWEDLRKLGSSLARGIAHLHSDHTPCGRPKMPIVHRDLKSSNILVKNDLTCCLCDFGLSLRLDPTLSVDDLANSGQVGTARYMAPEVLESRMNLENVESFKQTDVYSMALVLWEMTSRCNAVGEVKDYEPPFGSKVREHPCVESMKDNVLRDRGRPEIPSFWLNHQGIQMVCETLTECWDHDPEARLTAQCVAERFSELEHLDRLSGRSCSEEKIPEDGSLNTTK

[13] = target: Dual specificity protein kinase CLK1 (Homo sapiens, UniProt P49759)
Sequence of Dual specificity protein kinase CLK1 (P49759 whole entry): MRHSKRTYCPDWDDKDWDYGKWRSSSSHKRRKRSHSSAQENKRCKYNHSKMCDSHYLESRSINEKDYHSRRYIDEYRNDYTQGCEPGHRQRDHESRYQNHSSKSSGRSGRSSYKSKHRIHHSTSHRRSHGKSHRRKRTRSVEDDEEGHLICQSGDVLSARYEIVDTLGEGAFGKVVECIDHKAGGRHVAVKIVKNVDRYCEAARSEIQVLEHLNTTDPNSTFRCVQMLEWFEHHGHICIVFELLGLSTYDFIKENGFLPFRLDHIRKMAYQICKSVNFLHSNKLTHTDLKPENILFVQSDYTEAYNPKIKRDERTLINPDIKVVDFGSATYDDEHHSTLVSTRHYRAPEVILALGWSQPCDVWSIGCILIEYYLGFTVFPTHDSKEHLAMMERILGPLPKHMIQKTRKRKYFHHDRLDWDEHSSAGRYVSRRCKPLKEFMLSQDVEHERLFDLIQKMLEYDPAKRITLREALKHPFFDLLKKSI

[14] = target: T3, Bone morphogenetic protein receptor type-2 (Homo sapiens, UniProt Q13873)
T3 sequence (Q13873 whole entry): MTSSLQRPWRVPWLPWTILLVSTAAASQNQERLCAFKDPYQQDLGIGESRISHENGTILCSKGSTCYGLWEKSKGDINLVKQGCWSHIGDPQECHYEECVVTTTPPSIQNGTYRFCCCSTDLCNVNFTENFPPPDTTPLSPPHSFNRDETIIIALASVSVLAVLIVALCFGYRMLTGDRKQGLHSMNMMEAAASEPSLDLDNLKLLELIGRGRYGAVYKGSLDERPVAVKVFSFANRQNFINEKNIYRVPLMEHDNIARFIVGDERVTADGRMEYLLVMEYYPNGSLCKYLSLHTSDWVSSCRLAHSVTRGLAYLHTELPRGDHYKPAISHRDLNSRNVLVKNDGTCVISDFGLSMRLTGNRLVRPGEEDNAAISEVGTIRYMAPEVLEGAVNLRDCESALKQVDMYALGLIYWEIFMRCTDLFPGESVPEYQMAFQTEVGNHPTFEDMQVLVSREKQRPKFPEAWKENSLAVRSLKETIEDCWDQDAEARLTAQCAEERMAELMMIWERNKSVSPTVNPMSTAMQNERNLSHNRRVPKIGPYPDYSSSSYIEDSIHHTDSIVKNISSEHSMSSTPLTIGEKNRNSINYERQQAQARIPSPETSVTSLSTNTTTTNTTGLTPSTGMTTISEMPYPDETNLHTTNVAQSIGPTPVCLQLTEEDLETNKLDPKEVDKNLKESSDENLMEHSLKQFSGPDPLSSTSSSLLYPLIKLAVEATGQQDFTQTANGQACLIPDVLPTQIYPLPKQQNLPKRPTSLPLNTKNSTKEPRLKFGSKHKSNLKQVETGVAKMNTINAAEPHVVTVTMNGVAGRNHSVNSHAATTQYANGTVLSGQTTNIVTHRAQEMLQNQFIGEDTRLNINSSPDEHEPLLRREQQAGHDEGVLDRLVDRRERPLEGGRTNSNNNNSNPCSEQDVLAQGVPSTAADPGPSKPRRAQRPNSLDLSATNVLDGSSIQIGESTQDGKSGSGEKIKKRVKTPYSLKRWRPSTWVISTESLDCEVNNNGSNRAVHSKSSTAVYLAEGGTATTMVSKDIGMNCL

[15] = target: Casein kinase II subunit alpha' (Homo sapiens, UniProt P19784)
Note: in the data inactive means no Kd found up to 30 µM.

Sequence of Mitogen-activated protein kinase 1 (P28482 whole entry): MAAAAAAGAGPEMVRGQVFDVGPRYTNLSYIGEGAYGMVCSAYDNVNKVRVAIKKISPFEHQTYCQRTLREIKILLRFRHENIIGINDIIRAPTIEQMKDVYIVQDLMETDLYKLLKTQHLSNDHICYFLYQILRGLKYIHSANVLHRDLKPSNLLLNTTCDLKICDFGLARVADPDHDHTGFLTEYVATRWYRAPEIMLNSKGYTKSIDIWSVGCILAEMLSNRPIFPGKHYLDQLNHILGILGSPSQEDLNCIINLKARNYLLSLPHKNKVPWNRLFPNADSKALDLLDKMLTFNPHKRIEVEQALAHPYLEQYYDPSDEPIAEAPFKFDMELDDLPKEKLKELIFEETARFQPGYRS
Sequence of Mitogen-activated protein kinase 10 (P53779 whole entry): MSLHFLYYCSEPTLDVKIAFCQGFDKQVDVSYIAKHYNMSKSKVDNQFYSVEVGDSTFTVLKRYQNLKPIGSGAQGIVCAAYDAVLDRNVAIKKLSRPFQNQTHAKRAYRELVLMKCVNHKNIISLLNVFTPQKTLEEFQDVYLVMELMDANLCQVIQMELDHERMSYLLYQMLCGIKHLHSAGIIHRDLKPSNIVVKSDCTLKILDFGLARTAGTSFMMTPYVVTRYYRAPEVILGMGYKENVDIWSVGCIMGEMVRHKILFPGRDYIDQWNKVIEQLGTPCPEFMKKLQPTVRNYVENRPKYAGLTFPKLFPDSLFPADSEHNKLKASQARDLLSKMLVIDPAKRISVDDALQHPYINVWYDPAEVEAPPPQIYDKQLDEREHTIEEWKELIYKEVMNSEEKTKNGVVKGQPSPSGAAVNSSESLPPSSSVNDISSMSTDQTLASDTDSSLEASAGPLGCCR

Row | Structure (SMILES) | Kd [1] | Kd [2] | Kd [3] | Kd [4] | Kd [5] | Kd [6] | Kd [7] | Kd [8] | Kd [9] | Kd [10] | Kd [11] | Kd [12] | Kd [13] | Kd [14] | Kd [15]
1 | Cn1c(=O)c(F)c(Nc2ccc(I)cc2F)c2c(=O)n(C[C@@H](O)CO)cnc21 [TAK-733] | > 30 µM (inactive) | > 30 µM (inactive) | > 30 µM (inactive) | > 30 µM (inactive) | > 30 µM (inactive) | > 30 µM (inactive) | > 30 µM (inactive) | > 30 µM (inactive) | > 30 µM (inactive) | > 30 µM (inactive) | > 30 µM (inactive) | > 30 µM (inactive) | > 30 µM (inactive) | > 30 µM (inactive) | > 30 µM (inactive)
2 | C[C@]1(O)C[C@@H](c2nc(-c3ccc4ccc(-c5ccccc5)nc4c3)c3c(N)nccn32)C1 [LINSITINIB] |  | > 30 µM (inactive) | > 30 µM (inactive) | > 30 µM (inactive) | > 30 µM (inactive) | > 30 µM (inactive) | > 30 µM (inactive) | > 30 µM (inactive) | > 30 µM (inactive) |  |  | > 30 µM (inactive) | > 30 µM (inactive) | > 30 µM (inactive) | > 30 µM (inactive)
3 | O=C(O)c1ccc2c(c1)nc(Nc1cccc(Cl)c1)c1ccncc12 [SILMITASERTIB] | > 30 µM (inactive) | > 30 µM (inactive) | > 30 µM (inactive) | > 30 µM (inactive) | > 30 µM (inactive) | > 30 µM (inactive) | > 30 µM (inactive) | > 30 µM (inactive) |  | > 30 µM (inactive) | > 30 µM (inactive) | > 30 µM (inactive) |  | 1.06 µM (active) | 
4 | CCOc1ccn(-c2ccc(F)cc2)c(=O)c1C(=O)Nc1ccc(Oc2ccnc(N)c2Cl)c(F)c1 [BMS-777607] | > 30 µM (inactive) | > 30 µM (inactive) | > 30 µM (inactive) |  | > 30 µM (inactive) | > 30 µM (inactive) | > 30 µM (inactive) | > 30 µM (inactive) |  | > 30 µM (inactive) | > 30 µM (inactive) | > 30 µM (inactive) |  |  | > 30 µM (inactive)
5 | O=S(=O)(c1cccc2cnccc12)N1CCCNCC1 [FASUDIL] |  |  | > 30 µM (inactive) | > 30 µM (inactive) |  | > 30 µM (inactive) | 3.48 µM (active) | > 30 µM (inactive) | > 30 µM (inactive) |  | > 30 µM (inactive) | > 30 µM (inactive) | 0.152 µM | > 30 µM (inactive) | > 30 µM (inactive)
6 | C=CC(=O)Nc1cc(Nc2nccc(-c3cn(C)c4ccccc34)n2)c(OC)cc1N(C)CCN(C)C [OSIMERTINIB] | > 30 µM (inactive) | > 30 µM (inactive) | > 30 µM (inactive) | > 30 µM (inactive) | > 30 µM (inactive) | > 30 µM (inactive) | > 30 µM (inactive) | > 30 µM (inactive) | > 30 µM (inactive) | > 30 µM (inactive) | > 30 µM (inactive) |  | > 30 µM (inactive) | > 30 µM (inactive) | > 30 µM (inactive)
7 | O=c1[nH]c([C@@H]2CCCN2)nc2c1oc1ccc(Cl)cc12 | > 30 µM (inactive) | > 30 µM (inactive) | > 30 µM (inactive) | > 30 µM (inactive) | > 30 µM (inactive) | > 30 µM (inactive) | > 30 µM (inactive) | > 30 µM (inactive) | > 30 µM (inactive) | > 30 µM (inactive) | > 30 µM (inactive) | > 30 µM (inactive) |  | > 30 µM (inactive) | 0.022 µM (active)
8 | CCc1nc(C(N)=O)c(Nc2ccc(N3CCC(N4CCN(C)CC4)CC3)c(OC)c2)nc1NC1CCOCC1 [GILTERITINIB] | > 30 µM (inactive) | 0.759 µM | 0.512 µM (active) | > 30 µM (inactive) | > 30 µM (inactive) | > 30 µM (inactive) | > 30 µM (inactive) | > 30 µM (inactive) | > 30 µM (inactive) | > 30 µM (inactive) | > 30 µM (inactive) | > 30 µM (inactive) |  | > 30 µM (inactive) | 0.96 µM (active)
9 | COc1cccc(Nc2ncnn3ccc(CN4CC[C@@H](N)[C@H](O)C4)c23)c1 [BMS-690514] | > 30 µM (inactive) | > 30 µM (inactive) | > 30 µM (inactive) | > 30 µM (inactive) | > 30 µM (inactive) | > 30 µM (inactive) | > 30 µM (inactive) | > 30 µM (inactive) | > 30 µM (inactive) | > 30 µM (inactive) | > 30 µM (inactive) | > 30 µM (inactive) | > 30 µM (inactive) | > 30 µM (inactive) | 
10 | NC[C@@](O)(c1ccc(Cl)cc1)c1ccc(-c2cn[nH]c2)cc1 [AT-13148] | > 30 µM (inactive) | > 30 µM (inactive) | > 30 µM (inactive) | > 30 µM (inactive) | > 30 µM (inactive) | > 30 µM (inactive) | > 30 µM (inactive) |  | > 30 µM (inactive) | > 30 µM (inactive) | > 30 µM (inactive) |  |  | > 30 µM (inactive) | > 30 µM (inactive)
11 | COc1ccc(-c2ccc3ncc4c(c3c2)n(-c2ccc(N3CCNCC3)c(C(F)(F)F)c2)c(=O)n4C)cn1 [BGT-226 FREE BASE] | > 30 µM (inactive) | > 30 µM (inactive) | > 30 µM (inactive) | > 30 µM (inactive) | > 30 µM (inactive) |  | > 30 µM (inactive) | > 30 µM (inactive) | > 30 µM (inactive) | > 30 µM (inactive) | > 30 µM (inactive) | > 30 µM (inactive) | 0.246 µM (active) | > 30 µM (inactive) | 8.49 µM (active)
12 | O=S(=O)(c1cccc2c(O)nccc12)N1CCCNCC1 [HYDROXYFASUDIL] |  | > 30 µM (inactive) | > 30 µM (inactive) | > 30 µM (inactive) | > 30 µM (inactive) | > 30 µM (inactive) | > 30 µM (inactive) | > 30 µM (inactive) | > 30 µM (inactive) | > 30 µM (inactive) | > 30 µM (inactive) | > 30 µM (inactive) | 24.1 µM (active) | > 30 µM (inactive) | > 30 µM (inactive)

— ChEMBL document CHEMBL3991601, “The target landscape of clinical kinase drugs” (Science, 2017)
